PMC10831786 (Virus Research, 2024)

Tests used:
[1] = molecular target: protein synthesis in rabbit reticulocyte lysate; assay: Inhibition of protein synthesis in rabbit reticulocyte lysates (luciferase mRNA translation); assay type: biochemical
Procedure: The TnT® Quick Coupled Transcription/Translation System from Promega (WI, USA; L1170) was used to evaluate inhibitory effects of ipecac alkaloids and cycloheximide on protein synthesis. Assay conditions were employed as recommended by the manufacturer. Briefly, reactions (20 μl) contained 80 % TNT Quick master mix, 20 µM methionine, 40 ng/µL luciferase RNA (Promega; L4561), and test chemicals. Samples were incubated at 30 °C for 90 min and diluted 10-fold with PBS. An aliquot (2 μl) was mixed with 20 μl of luciferase assay reagent (Promega; E1500) and luminescence was measured with a Turner Designs luminometer (model TD-20/20).

[2] = test system: protein synthesis in Vero E6 cells; assay: Puromycin pulse labeling, protein synthesis in cultured Vero E6 cells; assay type: cell-based, African green monkey
Procedure: Vero E6 cells were seeded at 30,000 cells per cm^2 in 6-well plates. […] Control experiments were conducted in medium alone and medium containing cycloheximide or DMSO. After 12 min, cells were washed with 37° PBS and then allowed to recover in drug-free 2 % FBS-EMEM for 30 min. Cell pellets, collected by trypsinization and centrifugation for 5 min at 5 000 rpm at 4 °C, were re-suspended in ice-cold PBS and centrifugation was repeated. Collected cells were stored at −80 °C.
Antibodies used were anti-puromycin monoclonal (TFS; MABE34), goat anti-mouse-HRP (TFS, Invitrogen; G21040), rabbit anti-β-actin (Cell Signaling, 4967S, lot 9) and HRP-conjugated goat-anti-rabbit (Cell Signaling, 7074S, lot 27). Protein extract and immunoblotting methods were done by standard methods reported here as Supplementary Information.
Vero E6 cells were seeded at 30,000 cells per cm^2 in 6-well plates. […] Puromycin labelling protocols have been well established by other laboratories and a general review of the methods has been published^79. Control experiments were conducted in medium alone and medium containing cycloheximide or DMSO. Following incubation with puromycin for 12 min, the medium was quickly removed and cells were washed with warm PBS and then allowed to recover in drug-free 2% FBS-EMEM for 30 min. Cell pellets, collected by trypsinization and centrifugation for 5 min at 5 000 rpm at 4°C, were re-suspended in ice-cold PBS and the centrifugation was repeated. Collected cells were stored at -80°C until subjected to the protein preparation as noted below.
Defrosted cell pellets were re-suspended in 120 µl of RIPA (radio-immunoprecipitation) buffer (Sigma; R0278) containing 7 µl of protease inhibitors (Sigma; P8340). Samples were incubated on ice for 40 min with occasional gentle mixing. Cell debris was removed by a 20 min centrifugation at 16,000 g at 4°C and supernatants were stored at -80°C. Protein was measured by the Pierce^TM bicinchoninic acid (BCA) assay (Thermo Fisher Scientific [TFS], MA, USA; 23250), using bovine serum albumin as a standard, according to protocols recommended by the manufacturer.
For immunoblotting, 10 µg of protein was combined with Laemmli buffer containing 10% β-mercaptoethanol, heated at 95°C for 5 min and loaded on 4-20% Mini-PROTEAN® TGX™ precast protein gels. Samples were resolved by electrophoresis in Tris-Gly-SDS buffer and transferred to nitrocellulose membranes. Transfer was conducted in Tris-Gly buffer containing 20% methanol at 4-6 V/cm^2 for one hour. Membranes were blocked in 10 mM sodium phosphate buffer containing 150 mM NaCl (pH 7.8), 5% milk and 0.1% TWEEN20 (PBST) at room temperature for at least one hour, and then incubated overnight with primary anti-puromycin antibodies (TFS; MABE343 mouse monoclonal antibodies clone 12D10; 1:12,500) at 4°C. Membranes were washed for five minutes three times in PBST and incubated with secondary goat anti-mouse horseradish peroxidase (HRP) -conjugated antibodies (TFS, Invitrogen; G21040; 1:25,000) for 90 min. After three more rounds of washing as above, membranes were incubated with an HRP substrate (TFS; 34077) for one minute and chemoluminescence was visualized by exposing membranes to film for 1, 2, 5, 10 and 30 min.
For β-actin staining, the same membranes used for puromycin immunostaining were washed four times, 5 min each, in 20 mM Tris-buffered saline containing 500 mM sodium chloride (pH 7.5) and 0.1% TWEEN20 (TBST) and stripped by two rounds of 20 and 10 min washes at 50°C in glycine buffer (pH 2.2) containing 0.1 % SDS (W/V) and 1% TWEEN20. Membranes were then washed at room temperature with PBS (3x10 min) and PBST (2x5min). Blocking, primary (1:4,000) and secondary (1:5,000) antibody staining was conducted as above. Primary rabbit anti-β-actin antibodies were obtained from Cell Signaling (4967S, lot 9) and secondary HRP-conjugated goat-anti-rabbit antibodies were from the same company (7074S, lot 27). […]

[3] = test system: HCoV-OC43; assay: Antiviral activity against HCoV-OC43 in Vero E6 cells (RT-qPCR of N-gene); assay type: cell-based
Procedure: Vero E6 cells (∼5 × 10^4 cells/cm^2 in 24-well plates) were infected with […] at MOI of 20 genomes per cell in 2 % FBS-EMEM at 33 °C, 5 % CO2 with gently mixing for 2 h. Infection medium was removed, cells were washed with fresh medium followed by the addition of compounds at indicated concentrations in 2 % FBS-EMEM. After 72 h, 100 µL of medium was collected and stored at −80 °C for viral RNA isolation and RT-qPCR analysis as detailed below. Drugs were added to the medium prior to and after viral absorption for comparison.
HCoV-OC43 RNA was isolated from 100 µL of medium using Quick-RNA Viral Kit-DX (Zymo Research, CA, USA; R1035). The relative amount of viral genomic RNA was determined with Luna Universal One-Step RT-qPCR Kit (New England Biolabs, MA, USA; E3005). […]
RT-qPCR cycles were set for 20 min at 55 °C, 1 min at 95 °C followed by 45 cycles of 95 °C for 10 s, 48 °C for 30 s and 60 °C for 1 min. The threshold cycle (Ct) for each sample was determined using the Opticon Monitor 3 Program (BioRad). Drug effects on viral propagation were evaluated assuming that a difference of one cycle corresponds to a two-fold difference in the number of copies of viral RNA. Ct values obtained for drug-free samples were considered as 100 % viral propagation.

[4] = MTS assay, growth inhibition and toxicity in non-infected Vero E6 cells; assay type: cell-based, African green monkey; conditions: African green monkey, non-infected Vero E6 cells, MTS, 72 h; read-out: Fifty percent effect (CC50) in non-infected Vero E6
Procedure: Detailed methods are provided in Supplementary Information.
Vero E6 and BEC-hACE2 cells were grown to 70-80% density in their maintenance media and exposed to various concentrations of ipecac alkaloids (0.0125 – 200 µM) under standard culture conditions for 48-72 h and 24 h, respectively. Controls with varying amounts of DMSO and no DMSO were included also. Vero E6 cells were incubated with drugs in 2% FBS-EMEM, while BEC-HACE2 cells were grown and treated in complete PCS-300-03 medium with supplements. Similar treatments were also conducted using fully confluent non-growing BEC-hACE2 cells. At the end of the exposure period, MTS reagent (Promega G3580) was added at 1/5th of the medium volume and color was allowed to develop by incubation of the plates for an hour in a cell culture incubator. To stop reactions, SDS was added to a final concentration of 2% and optical density of samples was measured at 450 or 490 nm, depending on the model of spectrophotometer (PharmaciaBiotech, NJ, USA; UV spectrophotometer, model Ultrospec2000) or plate reader (Molecular Devices, CA, USA; model Filter Max F5 Multi-mode microplate reader) available at the time of experiment.

SMILES	IC50 ([1]; luciferase mRNA, 30 °C, 90 min) [µM]	IC50 ([2]; Chlorocebus sabaeus, Vero C1008, Vero E6 cells, 1 h exposure, puromycin labeling, read-out: 50 % inhibitory activities, protein synthesis) [µM]	Inhibitory effects on translation in rabbit reticulocyte lysate ([1]; concentration range 0.1 - 100 μM)	IC50, protein synthesis inhibition in rabbit reticulocyte lysate ([1]; luciferase mRNA, 30 °C, 90 min)	Protein synthesis,% ([2]; Vero E6, 0.1 μM) [%]	Protein synthesis, puromycilation signal ([2]; Vero E6, >1 μM)	Concentration above which inhibition of puromycilation is not sustained ([2]; Vero E6 cells) [µM]	Efficiency as protein synthesis inhibitors ([2]; cultured cells, puromycin labeling)	IC50 ([3]; Betacoronavirus 1, OC43, Vero C1008, Vero E6, drug added after viral absorption, 72 hpi, read-out: Antiviral IC50) [µM]	Selectivity index, (SI) CC50/IC50 ([3]; HCoV-OC43, Vero E6, 72 hpi)	CC50 at 72 h [4] [µM]
C[C@@H]1C[C@@H]([C@H](O)CC2CC(=O)NC(=O)C2)C(=O)[C@@H](C)C1 [CHX, Cycloheximide, reference compound]	0.031	~0.03	–	–	–	–	–	–	–	–	–
CCC1=C(C[C@@H]2NCCc3cc(OC)c(OC)cc32)C[C@@H]2c3cc(OC)c(OC)cc3CCN2C1 [DHE1, 4H-Benzo[a]quinolizine, 3-ethyl-1,6,7,11b-tetrahydro-9,10-dimethoxy-2-[[(1S)-1,2,3,4-tetrahydro-6,7-dimethoxy-1-isoquinolinyl]methyl]-, (11bR)-]	–	–	no inhibitory effects	Not active	0	signal increase	> 1	inefficient as protein synthesis inhibitors	1.03 ± 0.446	188	193 ± 63.6
